Reference: paper PMC12491701, “Discovery of an APP-selective BACE1 inhibitor for Alzheimer's disease” (Neurotherapeutics, 2025)
≈ marks a conversion by molar mass, not a printed value. Where “and” joins values, the source holds several entries; their conditions need not be identical. Equal entries are not always repeated.

What was measured:
BACE1 = BACE1 (Homo sapiens, UniProt P56817); assay: P5-P5′ BACE1 inhibition assay; assay type: biochemical; conditions: for IC50: cell-free, read-out: BACE1 IC50 (P5-P5′ assay; BACE1-APP)
Chain of BACE1 (P56817 46-501): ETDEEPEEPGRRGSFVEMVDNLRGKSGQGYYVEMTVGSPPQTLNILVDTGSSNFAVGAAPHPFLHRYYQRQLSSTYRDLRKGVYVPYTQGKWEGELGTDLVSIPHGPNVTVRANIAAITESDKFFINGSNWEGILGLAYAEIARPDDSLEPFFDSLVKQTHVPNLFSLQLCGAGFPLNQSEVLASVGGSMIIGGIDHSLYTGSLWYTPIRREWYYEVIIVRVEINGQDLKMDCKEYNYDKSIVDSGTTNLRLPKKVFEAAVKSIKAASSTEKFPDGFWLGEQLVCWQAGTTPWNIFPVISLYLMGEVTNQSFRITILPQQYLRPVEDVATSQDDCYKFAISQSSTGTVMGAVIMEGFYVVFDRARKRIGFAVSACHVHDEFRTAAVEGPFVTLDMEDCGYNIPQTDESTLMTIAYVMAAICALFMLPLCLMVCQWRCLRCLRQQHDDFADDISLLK

Pharmacokinetics in mice = assay type: in vivo, mouse; conditions: SQ injection of 10 mg/Kg, in words; 10 mg/kg
Experimental: Wildtype or non-transgenic (NTg) C57Bl6 mice or Sprague-Dawley rats were dosed by oral (gavage) or subcutaneous (SQ) injection at 10 or 30 mg/kg, and animals were euthanized 1, 2, 6, and 8 h after administration by ketamine/xylazine over-anesthesia, in rats, CSF was also collected, followed by transcardial collection of blood for isolation of plasma and saline perfusion. Brain tissue was collected post-mortem for assessment of compound levels and biomarkers.
Analyses of compound levels in PK studies were performed in the UCLA Pasarow Mass Spectrometry Lab (PMSL; Julian Whitelegge, Ph.D., Director). Tissues were homogenized in a bead beater using 5 vol of ice-cold 80 % acetonitrile (1/5; mg of brain/μL of 80 % ACN). Plasma analytes were extracted using 4 vol of ice-cold acetonitrile (1/4; μL of plasma/μL of 100 % ACN). Solutions were clarified by centrifugation (16,000×g, 5 min) and the supernatants were transferred to new tubes and lyophilized. Samples were reconstituted in 100 μL of 50/50/0.1 (Water/Acetonitrile/Formic Acid) prior to analysis via liquid chromatography-tandem mass spectrometry (LC-MS/MS).
An internal standard (IS) was added to every sample to account for compound loss during sample processing. Standards were made in drug naïve plasma and tissue lysates with increasing amounts of analyte (S1, S2: 0 pmol/S3, S4: 1 pmol/S5, S6: 10 pmol/S7, S8: 100 pmol, S9, S10: 1000 pmol). The standard curve was made by plotting the known amount of analyte per standard vs. the ratio of measured chromatographic peak areas corresponding to the analyte over that of the IS (analyte/IS). The trendline equation was then used to calculate the absolute concentrations of each compound in plasma and tissue.
The targeted LC-MS/MS assay was developed using the multiple reaction monitoring (MRM) acquisition method on a 6460 triple quadrupole mass spectrometer (Agilent Technologies) coupled to a 1290 Infinity HPLC system (Agilent Technologies) with a Phenomenex analytical column (Kinetex 1.7 μm C18 100 Å 100 × 2.1 mm). The HPLC method utilized a mixture of solvent A (99.9/0.1 Water/Formic Acid) and solvent B (99.9/0.1 Acetonitrile/Formic Acid) and a gradient was use for the elution of the compounds (min/%B: 0/1, 3/1, 19/99, 20/1, 30/1). Two fragment ions were monitored at specific LC retention times to ensure specificity and accurate quantification in the complex biological samples. The normalized chromatographic peak areas were determined by taking the ratio of measured chromatographic peak areas corresponding to the compound over that of the internal standard (Analyte/IS).
The Tmax, Cmax, brain-to-plasma ratios and brain levels were then calculated using PK Solutions software (SummitPK).

[1] = system: CHO-7W cells expressing wildtype human APP; assay: sAPPβ and Aβ1-42 production in CHO-7W cells (AlphaLISA); assay type: cell-based, Chinese hamster; conditions: in words
Experimental: Culture Media was collected and frozen. Media was assayed using an AlphaLISA for Aβ1-42 (Perkin Elmer catalog # AL276C), sAPPα (R&D Systems catalog # AF1168 conjugated with Perkin Elmer acceptor beads catalog # 6772001 + 2B3 antibody from IBL catalog # 11088 biotinylated), and sAPPβ (Perkin Elmer AL276-acceptor + IBL catalog # 18957 biotinylated). For the assay, 2 μL of diluted or undiluted sample was added to a 384 well plate, followed by 2 μL of the respective antibody mixture. This was incubated for 1 h. Afterwards, 2 μL of donor beads was added to each well, followed by a 30-min incubation in the dark, after which the signal was read.

BACE1 cleavage of NRG1 = molecular target: T1, BACE1 cleavage of NRG1 (Homo sapiens, UniProt P56817); assay: SEAP-NRG assay; assay type: cell-based; conditions: at ∼1 μM, in words
T1 construct: with or without full-length wild-type BACE1; expressed in transfected cells; host or cells: HEK293
T1 sequence (P56817 46-501): as above

eAPP = eAPP (Homo sapiens, UniProt P05067); assay: APP binding by surface plasmon resonance (SPR)
Chain of eAPP (P05067 18-701): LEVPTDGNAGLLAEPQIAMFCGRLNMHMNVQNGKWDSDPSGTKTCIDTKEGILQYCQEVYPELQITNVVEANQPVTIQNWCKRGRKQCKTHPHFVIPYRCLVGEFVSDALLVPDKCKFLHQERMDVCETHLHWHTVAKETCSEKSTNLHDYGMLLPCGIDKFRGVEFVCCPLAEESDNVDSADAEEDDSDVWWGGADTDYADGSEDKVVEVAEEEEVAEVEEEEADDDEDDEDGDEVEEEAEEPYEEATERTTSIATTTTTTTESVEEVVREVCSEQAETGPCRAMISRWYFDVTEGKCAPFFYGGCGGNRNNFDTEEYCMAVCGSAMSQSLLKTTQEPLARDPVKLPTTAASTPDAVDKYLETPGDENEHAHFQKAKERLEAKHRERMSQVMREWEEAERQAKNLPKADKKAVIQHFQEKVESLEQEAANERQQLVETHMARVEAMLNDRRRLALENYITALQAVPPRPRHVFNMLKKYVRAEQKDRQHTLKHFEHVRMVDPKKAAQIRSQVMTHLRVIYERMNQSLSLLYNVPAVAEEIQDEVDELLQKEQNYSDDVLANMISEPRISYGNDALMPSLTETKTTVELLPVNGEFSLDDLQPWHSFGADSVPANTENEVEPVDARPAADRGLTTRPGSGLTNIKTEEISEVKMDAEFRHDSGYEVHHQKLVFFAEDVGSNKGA

[2] = Brain tissue binding assay; assay type: in vitro ADME, mouse; conditions: brain homogenate, 2 µM compound
Experimental: The […]
(§1) KIAM = (tr – t0) / t0; Pm = (KIAM / MW4) x 1010
(§2) Compounds with a Pm >0.85 are predicted to be BBB permeable (CNS+) at pH 7.4.
Brain Tissue Binding Assay
Brain tissue was homogenized in PBS (pH 7.4) (1: 3 weight(mg)/volume(µL)) and the protein concentration determined using the Micro BCA™ Pr otein Assay Kit (Thermo Fisher Scientific, Cat#23235). Brain homogenate was diluted to 20 mg/mL in PBS (pH 7.4) and added to Slide-A-Lyzer™ MINI Dialysis Devices, 10K MWCO dialysis cups (Thermo Fisher Scientific, Cat#PI88401) in a 48-well plate containing PBS (500 µL; pH 7.4). 1 µL of 1 mM compound was added to the brain homogenate (final concentration: 2 µM compound, 0.5% DMSO) and incubated on a rocker for 4.5 hours at 37 °C. 50 µL of brain homogenate (within the dialysis cup) and PBS (within the 48-well plate) were transferred to new microcentrifuge tubes containing 200 µL of quenching reagent (100% acetonitrile) containing internal standard. Solutions were clarified by centrifugation (16,000 x g, 5 min) and the supernatants were transferred to new tubes and lyophilized. Samples were reconstituted in 100 µL of 50/50/0.1 (Water/Acetonitrile/Formic Acid) prior to analysis via LC-MS/MS.
The % of the unbound drug was calculated using the following equation: fubound = [normalized peak area in buffer side / normalized peak area in brain side] x 100

[3] = Liver microsome stability assay; assay type: in vitro ADME; conditions: human liver microsomes
Experimental: (§3) Liver microsome stability assay
(§4) A 1 µL sample of 1 mM FAH65 and its enantiomers in 100% DMSO was added to 1 mL of 0.5 mg/mL human liver microsomes (Thermo Fisher Scientific, Cat# HMMPL) in PBS pH 7.4, 2 mM NADPH, and 2 mM MgCl2; and incubated at 37 °C for 120 min. Aliquots (50 µL) of the microsome solution were taken […]
quenching solution containing an internal standard. Solutions were clarified by centrifugation (16K x g, 5 min) and supernatants transferred to new tubes and lyophilized. Samples were reconstituted in 100 µL of 50/50/0.1 water/acetonitrile/formic acid prior to analysis via LC-MS/MS.
Normalized chromatographic peak areas were plotted at each time point and the half-life (t1/2) of compound in liver microsomes was determined by using the trendline equation to calculate the time at which compound abundance was 50% of that at timepoint 0 (T0).
(§5) One µL FAH65 and its enantiomers (1 mM in 100% DMSO) was added to human peripheral blood plasma (Cat#70039, Stemcell Technologies Inc) diluted 2-fold in PBS (1000 µL, pH 7.4) and incubated […]
and 180 min, and added to a 200 µL 100% acetonitrile reaction quenching solution containing an internal standard. Solutions were clarified by centrifugation (16K x g, 5 min) and supernatants were transferred to new tubes and lyophilized. […]

Plasma stability assay = assay type: in vitro ADME; conditions: human plasma, 37 °C, 180 min
Experimental: The effects of candidate ASBIs on BACE2 activity was assessed using the R&D Systems BACE2 activity assay kit (Catalog #: 4097-AS and ES010) formatted from to the manufacturers. For the assay, 4 μL of assay buffer was added to each well, followed by 2 μL of BACE2 diluted in assay buffer to 10 ng/µL.
Then, 2 μL of inhibitor, at the appropriate concentrations were added to the wells and incubated for 30 minutes at room temperature. For all dilutions of inhibitor, drug stock solutions of 10 mM in DMSO were diluted to 50 μM in water; subsequent dilutions were in 0.5% DMSO. Afterwards, 2 μL of fluorogenic BACE2 substrate, diluted to 50 μM in assay buffer, were added to each well, after which the signal generated was read every 30 minutes at 25 °C for 2 hr (Fig S2).
(§6) FAH65 and its enantiomers at 10 mM in 100% DMSO was diluted in PBS pH 7.4 to 100, 10, 1, and 0.1 µM; plus, a vehicle-only control. The solutions were incubated at 37 °C for 90 min and centrifuged at 16K x g for 5 min. An aliquot of each supernatant was analyzed by LC-MS/MS. […]
Kinetic solubility (µM) was calculated using the trendline equation with maximum chromatographic peak area observed in the aqueous sample. […]
([…]® CAN, Chiral Technologies, Cat#H15L-109, 5 µm 50 x 4 mm). […] The retention time of the compound (tr) and injection peak were recorded.
The percent protein binding (P) was calculated using the following equations: […]

Kinetic solubility assay = assay type: physicochemical; conditions: PBS pH 7.4, 37 °C
Experimental: as §6, with “LC-MS/MS. A standard curve was generated by plotting the known amount of analyte per standard in DMSO vs. chromatographic peak” for “LC-MS/MS.”
Kinetic solubility (µM) was calculated using the trendline equation with maximum chromatographic peak area observed in the aqueous sample. (Table S3)
as §3, §4
quenching solution containing an internal standard. Solutions were clarified by centrifugation (16K x g, 5 min) and supernatants transferred to new tubes and lyophilized. Samples were reconstituted in 100 µL of 50/50/0.1 water/acetonitrile/formic acid prior to analysis via LC-MS/MS. […]
as §5

[4] = molecular target: T2, human serum albumin (HSA) (Homo sapiens, UniProt P02768); assay: Human serum albumin (HSA) binding assay; assay type: in vitro ADME
T2 construct: purchased Chiral Technologies H15L-109
T2 sequence (P02768 25-609): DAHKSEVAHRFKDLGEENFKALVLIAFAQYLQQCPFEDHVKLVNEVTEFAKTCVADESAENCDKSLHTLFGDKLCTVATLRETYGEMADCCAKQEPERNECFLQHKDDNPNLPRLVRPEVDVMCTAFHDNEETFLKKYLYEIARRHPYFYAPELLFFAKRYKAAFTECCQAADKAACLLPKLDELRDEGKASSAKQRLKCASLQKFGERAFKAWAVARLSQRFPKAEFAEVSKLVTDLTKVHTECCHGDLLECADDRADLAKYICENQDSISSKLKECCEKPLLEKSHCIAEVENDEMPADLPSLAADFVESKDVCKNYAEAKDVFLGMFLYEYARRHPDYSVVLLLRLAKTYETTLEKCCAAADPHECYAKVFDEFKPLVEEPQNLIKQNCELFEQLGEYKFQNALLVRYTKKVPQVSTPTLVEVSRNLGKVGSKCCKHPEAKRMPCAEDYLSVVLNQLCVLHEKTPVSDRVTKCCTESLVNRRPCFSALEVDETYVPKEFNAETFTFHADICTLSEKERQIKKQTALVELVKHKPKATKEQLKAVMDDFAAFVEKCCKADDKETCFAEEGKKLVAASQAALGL
Experimental: Human serum albumin (HSA) binding assay
The liquid chromatography-ultraviolet/visible spectroscopy (LC-UV/Vis) assay was performed on a 1290 Infinity HPLC system (Agilent Technologies) with an HPLC column containing immobilized HSA
([…]® CAN, Chiral Technologies, Cat#H15L-109, 5 µm 50 x 4 mm). The HPLC method utilized an isocratic gradient containing 100% 6.7 mM phosphate buffer saline (pH 7.4). The retention time of the compound (tr) and injection peak were recorded.
The percent protein binding (P) was calculated using the following equations:
K’ = (tr – tm) / tm; P = 100 x [K’ / (K’ + 1)] […]
The […]
as §1, §2
Brain Tissue Binding Assay […]
Cat#23235). Brain homogenate was diluted to 20 mg/mL in PBS (pH 7.4) and added to Slide-A-Lyzer™ MINI Dialysis Devices, 10K MWCO dialysis cups (Thermo Fisher Scientific, Cat#PI88401) in a 48-well plate containing PBS (500 µL; pH 7.4). 1 µL of 1 mM compound was added to the brain homogenate (final concentration: 2 µM compound, 0.5% DMSO) and incubated on a rocker for 4.5 hours at 37 °C. 50 µL of brain homogenate (within the dialysis cup) and PBS (within the 48-well plate) were transferred to new microcentrifuge tubes containing 200 µL of quenching reagent (100% acetonitrile) containing internal […]
standard. […]

[5] = Pilot PK of FAH65 vs. verubecestat in rats; assay type: in vivo, rat; conditions: oral gavage, 30 mg/kg

CN1C(=O)C(c2ccccc2)(c2cc(F)cc(F)c2)N=C1N (centres unmarked) [FAH1]
IC50 (BACE1): 5000 to 10000 nM and ~10000 nM | brain permeability (Pharmacokinetics in mice): brain permeable | Aβ42 ([1]; 5 μM): decreased

Cc1cc(C2(c3cc(F)cc(F)c3)N=C(N)N(C)C2=O)ccc1OC(F)F (centres unmarked) [FAH3]
inhibition at 1 µM (BACE1; at ∼1 μM, read-out: inhibition of BACE1 cleavage of APP): 50% | IC50 (BACE1): 1000 to 4000 nM and ~1000 nM and 500 to 1000 nM | inhibition of SEAP-NRG cleavage (BACE1 cleavage of NRG1): no SEAP-NRG cleavage | Kd (eAPP): ~300 nM | brain permeability (Pharmacokinetics in mice): had brain permeability | Aβ1-42 production ([1]; 1 μM): decreased

Cc1cc(C2(c3cccc(-c4cncnc4)c3)N=C(N)N(C)C2=O)ccc1OC(F)F (stereo not drawn) [FAH65E(+)]
Brain tissue binding, funbound [2]: 6.2% | Activity in the P5-P5′ assay (BACE1; in words): inactive | Microsomal stability T1/2 [3]: 0.4 h | Plasma stability t1/2 (Plasma stability assay): > 3 h | solubility kinetic at 90 min (Kinetic solubility assay): 87 µM (≈ 36.8 µg/mL) | Plasma (HSA) binding, funbound [4]: 0.8%

CN1C(=N)N[C@](C)(c2cc(NC(=O)c3ccc(F)cn3)ccc2F)CS1(=O)=O [Veru, verubecestat, reference compound]
Cmax ([5]; both sexes, Sprague-Dawley, rat, brain): 157 ng/g | time of brain Cmax [5]: 2 h
